Earlier results in patent US20200352901A1, “TETRAHYDROCANNABINOL MODULATORS” (priority 2017, published 2020).
Read-outs that look alike come from different tables or passages of the source.

Tests used:
[1] = biological target: T1, CB1 (Homo sapiens, UniProt P21554); settings: read-out: Binding affinity to CB1
Target sequence in this assay (P21554 whole entry): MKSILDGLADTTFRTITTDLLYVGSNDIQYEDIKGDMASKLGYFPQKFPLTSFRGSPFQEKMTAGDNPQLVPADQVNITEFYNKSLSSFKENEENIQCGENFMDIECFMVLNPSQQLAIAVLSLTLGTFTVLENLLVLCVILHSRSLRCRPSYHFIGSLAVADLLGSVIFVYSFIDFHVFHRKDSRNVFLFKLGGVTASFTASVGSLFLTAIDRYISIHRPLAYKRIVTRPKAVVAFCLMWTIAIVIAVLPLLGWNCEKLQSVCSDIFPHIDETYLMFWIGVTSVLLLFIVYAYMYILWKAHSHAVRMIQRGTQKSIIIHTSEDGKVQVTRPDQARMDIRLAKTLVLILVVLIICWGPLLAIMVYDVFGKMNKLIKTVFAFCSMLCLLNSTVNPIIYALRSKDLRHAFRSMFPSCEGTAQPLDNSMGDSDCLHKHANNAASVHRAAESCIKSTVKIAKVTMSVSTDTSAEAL

[2] = biological target: T2, human CB2 receptor (Homo sapiens, UniProt P34972); settings: cells expressing human CB2 receptor; radioligand binding; read-out: Binding affinity to CB2
[3] = biological target: T1, CB1
Target sequence in this assay (P21554 whole entry, species assumed): as the sequence (P21554 whole entry) above

[4] = biological target: T3, UGT1A10 (Homo sapiens, UniProt Q9HAW8); settings: extrahepatic isoform UGT1A10
T3 sequence (Q9HAW8 26-530): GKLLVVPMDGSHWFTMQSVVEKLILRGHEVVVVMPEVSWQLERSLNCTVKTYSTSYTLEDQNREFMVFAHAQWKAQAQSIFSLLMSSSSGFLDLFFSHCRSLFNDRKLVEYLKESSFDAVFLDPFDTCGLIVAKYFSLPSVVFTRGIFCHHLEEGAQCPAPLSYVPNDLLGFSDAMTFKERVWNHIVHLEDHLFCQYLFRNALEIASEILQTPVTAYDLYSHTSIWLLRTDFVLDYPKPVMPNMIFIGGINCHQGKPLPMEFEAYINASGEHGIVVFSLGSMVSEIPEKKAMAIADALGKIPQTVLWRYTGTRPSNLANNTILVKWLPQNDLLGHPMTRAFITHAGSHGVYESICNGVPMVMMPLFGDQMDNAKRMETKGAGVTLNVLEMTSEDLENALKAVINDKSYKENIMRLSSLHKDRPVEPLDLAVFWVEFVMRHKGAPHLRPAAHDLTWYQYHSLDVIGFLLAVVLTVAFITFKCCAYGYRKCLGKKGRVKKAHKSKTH

[5] = biological target: T1, CB1; remark: listed apart in the source
Target sequence in this assay (P21554 whole entry): as the sequence (P21554 whole entry) above

[6] = biological target: T2, human CB2 receptor
[7] = biological target: T4, CYP3A4 (Homo sapiens, UniProt P08684); settings: read-out: IC(50) for CYP3A4 inhibition
T4 sequence (P08684 whole entry): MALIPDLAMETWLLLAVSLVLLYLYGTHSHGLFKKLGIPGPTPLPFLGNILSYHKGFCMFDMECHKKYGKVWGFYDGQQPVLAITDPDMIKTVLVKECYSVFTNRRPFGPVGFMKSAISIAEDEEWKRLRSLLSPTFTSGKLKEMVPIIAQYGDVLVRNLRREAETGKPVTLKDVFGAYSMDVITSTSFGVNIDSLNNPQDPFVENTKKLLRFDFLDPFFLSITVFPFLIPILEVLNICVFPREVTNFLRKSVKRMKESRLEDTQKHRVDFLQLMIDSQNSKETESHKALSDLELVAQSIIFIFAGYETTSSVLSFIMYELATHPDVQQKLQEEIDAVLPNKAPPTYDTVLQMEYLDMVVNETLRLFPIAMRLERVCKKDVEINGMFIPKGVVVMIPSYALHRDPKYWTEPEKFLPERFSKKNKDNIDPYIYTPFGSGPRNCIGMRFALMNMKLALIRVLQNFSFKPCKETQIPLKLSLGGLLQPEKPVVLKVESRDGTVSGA

[8] = biological target: T5, CYP2C9 (Homo sapiens, UniProt P11712); settings: read-out: IC(50) for CYP2C9 inhibition
T5 sequence (P11712 whole entry): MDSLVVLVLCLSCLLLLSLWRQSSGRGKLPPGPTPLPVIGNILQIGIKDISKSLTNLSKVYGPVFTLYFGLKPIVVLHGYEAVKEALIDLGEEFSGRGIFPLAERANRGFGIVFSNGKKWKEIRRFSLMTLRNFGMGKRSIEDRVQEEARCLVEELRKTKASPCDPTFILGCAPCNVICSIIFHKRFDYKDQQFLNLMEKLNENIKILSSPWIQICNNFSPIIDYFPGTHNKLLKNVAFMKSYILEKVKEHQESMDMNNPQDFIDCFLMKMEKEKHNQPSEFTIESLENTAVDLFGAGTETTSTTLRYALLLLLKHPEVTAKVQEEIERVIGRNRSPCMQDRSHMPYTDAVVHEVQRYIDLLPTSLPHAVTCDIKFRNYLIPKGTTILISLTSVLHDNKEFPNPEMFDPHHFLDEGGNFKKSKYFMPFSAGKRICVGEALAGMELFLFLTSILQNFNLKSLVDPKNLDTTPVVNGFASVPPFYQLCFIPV

[9] = biological target: T6, CYP1A2 (Homo sapiens, UniProt P05177); settings: read-out: IC(50) for CYP1A2 inhibition
T6 sequence (P05177 1-516): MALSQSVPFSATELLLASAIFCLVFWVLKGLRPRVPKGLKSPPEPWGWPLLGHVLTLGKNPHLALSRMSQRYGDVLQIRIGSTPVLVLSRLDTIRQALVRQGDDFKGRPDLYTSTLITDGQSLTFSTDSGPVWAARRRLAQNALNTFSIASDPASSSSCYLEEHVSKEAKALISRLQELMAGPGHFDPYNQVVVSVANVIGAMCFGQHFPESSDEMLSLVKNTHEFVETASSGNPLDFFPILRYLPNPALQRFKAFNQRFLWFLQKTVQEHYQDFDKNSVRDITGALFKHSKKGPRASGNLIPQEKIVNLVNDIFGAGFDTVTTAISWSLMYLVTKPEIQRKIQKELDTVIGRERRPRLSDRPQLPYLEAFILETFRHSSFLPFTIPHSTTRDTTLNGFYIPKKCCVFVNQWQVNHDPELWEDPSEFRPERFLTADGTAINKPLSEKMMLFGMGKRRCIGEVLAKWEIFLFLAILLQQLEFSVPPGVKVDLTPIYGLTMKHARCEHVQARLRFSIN

[10] = biological target: T7, CYP2C8 (Homo sapiens, UniProt P10632); settings: standard substrate of CYP2C8
T7 sequence (P10632 1-490): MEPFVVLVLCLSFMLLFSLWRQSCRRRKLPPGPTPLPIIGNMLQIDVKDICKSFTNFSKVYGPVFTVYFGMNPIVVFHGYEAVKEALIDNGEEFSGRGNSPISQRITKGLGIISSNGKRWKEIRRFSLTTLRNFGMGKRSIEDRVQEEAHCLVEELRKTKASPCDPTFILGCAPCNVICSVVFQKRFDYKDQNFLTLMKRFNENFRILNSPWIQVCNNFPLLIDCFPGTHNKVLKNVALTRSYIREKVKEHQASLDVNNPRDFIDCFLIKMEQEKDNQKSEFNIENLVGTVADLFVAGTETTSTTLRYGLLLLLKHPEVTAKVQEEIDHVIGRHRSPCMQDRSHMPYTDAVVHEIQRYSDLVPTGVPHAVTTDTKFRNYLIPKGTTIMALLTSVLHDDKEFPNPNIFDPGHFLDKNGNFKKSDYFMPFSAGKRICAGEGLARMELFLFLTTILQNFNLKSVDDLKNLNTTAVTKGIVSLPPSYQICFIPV

[11] = biological target: CYP2B6 (Homo sapiens, UniProt P20813); settings: standard substrate of CYP2B6
Chain of CYP2B6 (P20813 whole entry): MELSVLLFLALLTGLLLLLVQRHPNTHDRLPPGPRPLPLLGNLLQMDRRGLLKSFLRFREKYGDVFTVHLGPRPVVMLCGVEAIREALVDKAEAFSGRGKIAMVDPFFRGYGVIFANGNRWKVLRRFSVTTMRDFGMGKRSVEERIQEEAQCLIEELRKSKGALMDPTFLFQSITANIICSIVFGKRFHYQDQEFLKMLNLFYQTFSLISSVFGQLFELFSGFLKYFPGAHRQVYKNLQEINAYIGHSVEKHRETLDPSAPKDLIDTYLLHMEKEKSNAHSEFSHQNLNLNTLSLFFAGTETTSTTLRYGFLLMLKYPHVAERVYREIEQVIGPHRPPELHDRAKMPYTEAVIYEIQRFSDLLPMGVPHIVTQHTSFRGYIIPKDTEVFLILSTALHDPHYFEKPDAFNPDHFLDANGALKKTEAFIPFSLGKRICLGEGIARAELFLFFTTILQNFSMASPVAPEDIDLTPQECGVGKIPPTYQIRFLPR

[12] = biological target: T8, UGT1A9 (Homo sapiens, UniProt O60656); settings: at 200 micromolar carvacrol; test substrate 4-methylumbelliferone
T8 sequence (O60656 26-530): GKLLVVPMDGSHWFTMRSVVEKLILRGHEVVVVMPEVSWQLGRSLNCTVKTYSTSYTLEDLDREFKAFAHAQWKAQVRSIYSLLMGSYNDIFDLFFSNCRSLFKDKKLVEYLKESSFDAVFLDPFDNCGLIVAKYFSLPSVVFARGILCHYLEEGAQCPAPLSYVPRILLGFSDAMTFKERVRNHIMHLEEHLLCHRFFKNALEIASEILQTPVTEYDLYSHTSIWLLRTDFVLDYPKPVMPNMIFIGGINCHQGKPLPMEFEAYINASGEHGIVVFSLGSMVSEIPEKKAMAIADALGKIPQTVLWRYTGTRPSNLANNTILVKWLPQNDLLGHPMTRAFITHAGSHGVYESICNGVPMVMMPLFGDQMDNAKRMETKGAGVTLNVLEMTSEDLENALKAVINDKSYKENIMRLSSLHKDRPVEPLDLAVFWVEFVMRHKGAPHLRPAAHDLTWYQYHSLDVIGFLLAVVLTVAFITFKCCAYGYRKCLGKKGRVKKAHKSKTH

[13] = biological target: CYP2A6 (Homo sapiens, UniProt P11509); settings: standard substrate of CYP2A6
Chain of CYP2A6 (P11509 whole entry): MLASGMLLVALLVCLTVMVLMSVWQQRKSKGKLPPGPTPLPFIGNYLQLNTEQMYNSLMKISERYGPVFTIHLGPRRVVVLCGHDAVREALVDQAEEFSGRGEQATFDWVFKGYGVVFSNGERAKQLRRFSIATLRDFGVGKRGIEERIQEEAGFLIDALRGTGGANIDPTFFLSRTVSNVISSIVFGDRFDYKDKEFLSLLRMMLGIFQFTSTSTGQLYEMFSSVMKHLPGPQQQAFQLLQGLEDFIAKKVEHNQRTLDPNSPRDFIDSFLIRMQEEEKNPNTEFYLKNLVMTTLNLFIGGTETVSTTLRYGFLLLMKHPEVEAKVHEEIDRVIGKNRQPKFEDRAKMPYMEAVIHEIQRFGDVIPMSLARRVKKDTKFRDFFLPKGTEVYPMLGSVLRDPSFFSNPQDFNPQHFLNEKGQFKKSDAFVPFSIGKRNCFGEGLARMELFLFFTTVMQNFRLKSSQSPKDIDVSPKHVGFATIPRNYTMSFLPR

[14] = biological target: CYP2D6 (Homo sapiens, UniProt P10635); settings: standard substrate of CYP2D6
Chain of CYP2D6 (P10635 whole entry): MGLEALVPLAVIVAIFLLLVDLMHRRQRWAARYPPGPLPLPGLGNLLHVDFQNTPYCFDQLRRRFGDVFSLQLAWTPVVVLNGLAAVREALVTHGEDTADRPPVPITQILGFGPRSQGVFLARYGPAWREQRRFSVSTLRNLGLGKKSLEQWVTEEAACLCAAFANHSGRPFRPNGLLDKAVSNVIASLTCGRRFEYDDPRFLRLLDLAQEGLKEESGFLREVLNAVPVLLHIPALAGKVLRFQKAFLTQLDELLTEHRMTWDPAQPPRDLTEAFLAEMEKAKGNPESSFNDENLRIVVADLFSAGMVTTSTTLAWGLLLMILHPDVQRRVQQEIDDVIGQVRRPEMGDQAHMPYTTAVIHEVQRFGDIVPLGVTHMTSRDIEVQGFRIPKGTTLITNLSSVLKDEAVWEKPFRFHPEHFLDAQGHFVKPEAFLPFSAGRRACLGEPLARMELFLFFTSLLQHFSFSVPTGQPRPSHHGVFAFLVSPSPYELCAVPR

[15] = biological target: T5, CYP2C9; settings: standard substrate of CYP2C9
[16] = biological target: T4, CYP3A4; settings: standard substrate of CYP3A4

T2 sequence (P34972 whole entry): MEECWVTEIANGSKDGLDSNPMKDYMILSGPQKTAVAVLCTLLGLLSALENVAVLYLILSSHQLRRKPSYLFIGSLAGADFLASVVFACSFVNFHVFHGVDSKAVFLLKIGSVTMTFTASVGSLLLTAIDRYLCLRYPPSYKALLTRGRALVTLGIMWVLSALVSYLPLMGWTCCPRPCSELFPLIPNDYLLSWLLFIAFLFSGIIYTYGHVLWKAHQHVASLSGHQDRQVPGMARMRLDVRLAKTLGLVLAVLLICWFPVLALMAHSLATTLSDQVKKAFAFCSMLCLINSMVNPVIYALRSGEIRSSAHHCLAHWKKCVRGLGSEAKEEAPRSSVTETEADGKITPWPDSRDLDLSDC

CCCCCc1cc(O)c2c(c1)OC(C)(C)C1CC(O)C(C)=CC21 (single isomer, unassigned) [Compound 1, 8-alpha-hydroxy-delta-9-THC]
Ki [1]: 1.91 µM | Ki [2]: 3.22 µM

CCCCCc1cc(O)c2c(c1)OC(C)(C)C1CC(O)C(C)=CC21 (single isomer, unassigned) [Compound 2, 8-beta-hydroxy-delta-9-THC]
Ki [1]: 0.065 µM | Ki [2]: 0.088 µM

C=C1CCC2C(c3c(O)cc(CCCCC)cc3OC2(C)C)C1O (single isomer, unassigned) [Compound 4, 10-beta-hydroxy-delta-9,11-hexahydro-cannabinol]
Ki [1]: 0.83 µM | Ki [2]: 3.27 µM

C=C1CCC2C(c3c(O)cc(CCCCC)cc3OC2(C)C)C1O (single isomer, unassigned) [Compound 5, 10-alpha-hydroxy-delta-9,11-hexahydro-cannabinol]
Ki [1]: 0.117 µM | Ki [2]: 0.129 µM

CCCCCc1cc(O)c2c(c1)OC(C)(C)[C@@H]1CC=C(CO)C[C@@H]21 [11-hydroxy-delta-8-THC]
Functional character at CB1 [3]: agonists

CCCCCc1cc(O)c2c(c1)OC(C)(C)c1ccc(C)cc1-2 [CBN, cannabinol]
Km [4]: 55 µM

CCCCCc1cc(O)c2c(c1)OC(C)(C)C1CC=C(C)C(O)C21 (stereo not drawn) [Compound 3, 10-alpha-hydroxy-delta-8-THC]
Ki [1]: 0.031 µM | Ki [2]: 0.03 µM | Functional character at CB1 [5]: partial agonist | Functional character at CB2 [6]: partial agonist

CC(C)=C1C[C@@H]2O[C@@]2(C)CC/C=C(\C)CC1=O [Compound 7, (4S,5S)-(−)-germacrone-4,5-epoxide]
IC50 [7]: 1 ± 0.2 µM | IC50 [8]: 7.6 ± 2.5 µM | IC50 [9]: 33.2 ± 3.6 µM

COc1cc(/C=C/C(=O)CC(=O)/C=C/c2ccc(O)c(OC)c2)ccc1O [Compound 11, curcumin]
IC50 [9]: > 100 µM

CCCCCc1cc(O)c2c(c1)OC(C)(C)[C@@H]1CCC(CO)=C[C@@H]21 [Compound 11-OH-THC, 11-hydroxy-delta-9-tetrahydrocannabinol]
Functional character at CB1 [3]: agonists | Km [4]: 16 µM

COc1cc(/C=C/C(O)=C/C(=O)/C=C/c2ccc(O)cc2)ccc1O [Compound 12, demethoxycurcumin]
IC50 [7]: 7 ± 1.7 µM | IC50 [8]: 1.4 ± 0.2 µM | IC50 [9]: 34 ± 14.2 µM

CCN(CC)Cc1cc(Nc2ccnc3cc(Cl)ccc23)ccc1O [amodiaquine]
Km [10]: 0.9 µM

CC(NC(C)(C)C)C(=O)c1cccc(Cl)c1 (stereo not shown) [bupropion]
Km [11]: 137 µM

Cc1ccc(C(C)C)cc1O [carvacrol]
4-methylumbelliferone glucuronidation activity remaining [12]: 20 % maximal activity

O=c1ccc2ccccc2o1 [coumarin]
Km [13]: 1 µM

COc1ccc2c(c1)[C@]13CCCC[C@@H]1[C@H](C2)N(C)CC3 [dextromorphone]
Km [14]: 5 µM

O=C(O)Cc1ccccc1Nc1c(Cl)cccc1Cl [diclofenac]
Km [15]: 3.5 µM

Cc1ncc2n1-c1ccc(Cl)cc1C(c1ccccc1F)=NC2 [midazolam]
Km [16]: 1.8 µM

C[C@]12CC[C@H]3[C@@H](CCC4=CC(=O)CC[C@@]43C)[C@@H]1CC[C@@H]2O [testosterone]
Km [16]: 64 µM
